# “Also recorded” adds a separate entry of the source.
# Assays:
# [1] = system: Renca cells (renal cell carcinoma); assay: Effect of the isomers on in vivo tumour growth in mice challenged with Renca cells; settings: for Inhibitory effect on in vivo Renca tumour growth (conclusion in words): 260 ng i.p. on days 6, 7 and 14, Balb/c mice; for Tumour surface, overall values (Mean) / Tumour surface, overall values (Median) / Tumour volume, overall values (Mean) / Tumour volume, overall values (Median): 260 ng/mouse i.p. on days 6, 7 and 14, s.c. Renca in Balb/c mice
# Description: This assay was made in order to check the effect of each stereoisomer on in vivo tumour growth in mice challenged with Renca cells. Their effect was compared with placebo. The stereoisomers assayed were: • Isomer 1: 3R,5S-1-(3-Amino-5-carboxy-2-oxopyrrolidin-3-ylmethyl)pyridinium bromide hidrobromide (9b) • Isomer 2: 3R,5R-1-(3-Amino-5-carboxy-2-oxopyrrolidin-3-ylmethyl)pyridinium bromide hidrobromide (9c) • Isomer 3: 3S,5S-1-(3-Amino-5-carboxy-2-oxopyrrolidin-3-ylmethyl)pyridinium bromide hidrobromide (9a) • Isomer 4: 3 S,5R-1-(3-Amino-5-carboxy-2-oxopyrrolidin-3-ylmethyl)pyridinium bromide hidrobromide (9d)
# Renca is a renal cell carcinoma originated in Balb/c mouse strain, and therefore syngeneic in mice with Balb/c genetic background [Melder R J et al., Cancer Immunol. Immunother., 2005, 54:535-547; Felluga B et al., 1969, J. Natl. Cancer Inst. 43:319-333]. Renca is considered a moderate immunogenic tumour and used as suitable model for testing immunointervention approaches [Salup R R, et al., 1992, The Journal of Urology, 147:1120-1123].
# Renca cells (CLS, Eppelheim, Germany) were maintained in vitro by serial passages every 3-4 days. Cultures were performed with RPMI medium medium (RPMI, 10% foetal calf serum, 2 mM L-glutamine, non essential amino acids, 1 mM sodium pyruvate, 20 mM HEPES, 80 μg/mL gentamycin; all of them were purchased from Sigma, St. Louis, Mo., USA) by seeding 5×10^6 cells onto 75 cm^2 culture flasks. Tumour cells collected from 48 hour cultures upon trypsinization (Sigma, St. Louis, Mo., USA) were used as source of Renca cells for the studies described below.
# Each isomer was tested at the dose levels of 260 ng administered on days 6, 7 and 14 after tumour inoculation.
# The treatments were given by intraperitoneal route. The volume inoculated was 0.2 mL/animal. This route was chosen because it is the one described in the original method [Perez S, et al., 2003, Clinical Cancer Research. 9:5776-5785].
# Tumours were established by subcutaneous inoculation in the right hind flank. Mice (Balb/c) were inoculated with 0.2 mL containing 105 viable Renca cells. The day of subcutaneous inoculation will be considered Day 0 of the test.
# Balb/c mice inoculated with Renca cells were distributed into 5 experimental groups:
# Mice were observed daily and the tumour size recorded twice a week. This was carried out by measuring two perpendicular diameters (L/W) with a calliper. These measures were used to obtain both tumour surface and volume:
# Tumour surface=L×W (mm^2)
# Tumour volume=L×W^2×½(mm^3)
# Results were expressed as single values and/or as the mean±SD or median from each experimental group.
# A case-control study was performed with treated and control mice in order to determine whether differences between isomers and administration of placebo were present. The data obtained (tumoral surface and volume) were tested for Normal distribution within the groups—Kolmogorov Smimov test p<0,05—. […] The U-test of Mann Withney was chosen for being one of the better known non-parametrical tests, anyway, results for this test are equivalent both to those of Wilcoxon's sum of ranges and Kruskal-Wallis two-groups test.
# Due to the high dispersion of data, outlayers (animals beyond percentile 25 or above percentile 75 for tumour surface at day 25) were excluded of the study.
# [2] = Solubility observed during purification attempts; type: physicochemical; settings: mixture of stereoisomers
# Description: Also, its immediate precursor BLAS-320(Ac) (1-(1-acetyl-3-acetylamino-5-carboxy-2-oxopyrrolidin-3-ylmethyl)pyridinium acetate) [drawing 7] was synthesized using different procedures.
# [3] = day 11 after tumour inoculation
# [4] = day 14 after tumour inoculation
# [5] = day 18 after tumour inoculation
# [6] = day 21 after tumour inoculation
# [7] = day 25 after tumour inoculation
SMILES,"Tumour surface, overall values (Mean) ([1]; day 0 after tumour inoculation) [mm^2]","Tumour surface, overall values (Median) ([1]; day 0 after tumour inoculation) [mm^2]","Tumour volume, overall values (Mean) ([1]; day 0 after tumour inoculation) [mm^3]","Tumour volume, overall values (Median) ([1]; day 0 after tumour inoculation) [mm^3]","Tumour surface, overall values (Mean) [1, 3] [mm^2]","Tumour surface, overall values (Median) [1, 3] [mm^2]","Tumour volume, overall values (Mean) [1, 3] [mm^3]","Tumour volume, overall values (Median) [1, 3] [mm^3]","Tumour surface, overall values (Mean) [1, 4] [mm^2]","Tumour surface, overall values (Median) [1, 4] [mm^2]","Tumour volume, overall values (Mean) [1, 4] [mm^3]","Tumour volume, overall values (Median) [1, 4] [mm^3]","Tumour surface, overall values (Mean) [1, 5] [mm^2]","Tumour surface, overall values (Median) [1, 5] [mm^2]","Tumour volume, overall values (Mean) [1, 5] [mm^3]","Tumour volume, overall values (Median) [1, 5] [mm^3]","Tumour surface, overall values (Mean) [1, 6] [mm^2]","Tumour surface, overall values (Median) [1, 6] [mm^2]","Tumour volume, overall values (Mean) [1, 6] [mm^3]","Tumour volume, overall values (Median) [1, 6] [mm^3]",further results
"Br.N[C@]1(C[n+]2ccccc2)C[C@H](C(=O)O)NC1=O.[Br-] (single isomer, unassigned; isomer 4) [isomer 4, 3 S,5R-1-(3-Amino-5-carboxy-2-oxopyrrolidin-3-ylmethyl)pyridinium bromide hidrobromide]",0,0,0,0,0,0,0,0,2.87,0,4.73,0,15.47,9,40.67,13.5,37.37,25,126.42,62.5,"Inhibitory effect on in vivo Renca tumour growth (conclusion in words) [1]: inhibit the in vivo growth of the renal cell carcinoma (Renca); also recorded: highest inhibitory effect on Renca tumour growth; p of differences in Renca tumour growth rate vs. placebo (surface or volume), Mann-Whitney U test ([1]; all days scored after the day 14th of tumour development, 260 ng i.p.): < 0.01; Tumour surface, overall values (Mean) [1, 7]: 81.3 mm^2; Tumour surface, overall values (Median) [1, 7]: 63.5 mm^2; Tumour volume, overall values (Mean) [1, 7]: 372.82 mm^3; Tumour volume, overall values (Median) [1, 7]: 238.25 mm^3"
"Br.N[C@]1(C[n+]2ccccc2)C[C@@H](C(=O)O)NC1=O.[Br-] (single isomer, unassigned; isomer 3) [isomer 3, 3S,5S-1-(3-Amino-5-carboxy-2-oxopyrrolidin-3-ylmethyl)pyridinium bromide hidrobromide]",0,0,0,0,0.3,0,0.28,0,7.5,4,14.55,4,31,18,101.4,36,64.57,45.5,278.15,148.75,"Inhibitory effect on in vivo Renca tumour growth (conclusion in words) [1]: inhibit the in vivo growth of the renal cell carcinoma (Renca); Tumour surface, overall values (Mean) [1, 7]: 106.17 mm^2; Tumour surface, overall values (Median) [1, 7]: 90 mm^2; Tumour volume, overall values (Mean) [1, 7]: 557.18 mm^3; Tumour volume, overall values (Median) [1, 7]: 405 mm^3; p of differences in Renca tumour growth rate vs. placebo (surface or volume), Mann-Whitney U test ([1]; days 18th and 25th of tumour development, 260 ng i.p.): < 0.05"
"CC(=O)NC1(C[n+]2ccccc2)CC(C(=O)O)N(C(C)=O)C1=O (stereo not drawn) [BLAS-320(Ac), 1-(1-acetyl-3-acetylamino-5-carboxy-2-oxopyrrolidin-3-ylmethyl)pyridinium acetate]",–,–,–,–,–,–,–,–,–,–,–,–,–,–,–,–,–,–,–,–,Solubility (in words) [2]: only soluble in water and methanol
"Br.N[C@@]1(C[n+]2ccccc2)C[C@@H](C(=O)O)NC1=O.[Br-] (single isomer, unassigned; isomer 1) [isomer 1, 3R,5S-1-(3-Amino-5-carboxy-2-oxopyrrolidin-3-ylmethyl)pyridinium bromide hidrobromide]",0,0,0,0,1.2,0,1.73,0,14.1,12.5,36.88,22.75,44.07,36,174.37,108,86.6,81,429.07,329.25,"Tumour surface, overall values (Mean) [1, 7]: 149.97 mm^2; Tumour surface, overall values (Median) [1, 7]: 160.5 mm^2; Tumour volume, overall values (Mean) [1, 7]: 895.58 mm^3; Tumour volume, overall values (Median) [1, 7]: 907.5 mm^3"
"Br.N[C@@]1(C[n+]2ccccc2)C[C@H](C(=O)O)NC1=O.[Br-] (single isomer, unassigned; isomer 2) [isomer 2, 3R,5R-1-(3-Amino-5-carboxy-2-oxopyrrolidin-3-ylmethyl)pyridinium bromide hidrobromide]",0,0,0,0,1.6,0,2.34,0,14.46,9,32.05,13.5,55.14,42,217.43,126,96.86,77,453.89,278.75,"Tumour surface, overall values (Mean) [1, 7]: 156.53 mm^2; Tumour surface, overall values (Median) [1, 7]: 140 mm^2; Tumour volume, overall values (Mean) [1, 7]: 938.48 mm^3; Tumour volume, overall values (Median) [1, 7]: 613.25 mm^3; Deaths of mice in treatment group ([1]; second week after tumour inoculation, 260 ng i.p., animals excluded): Two mice from isomer 2 group died for unknown causes"

# Reference: US20070249678A1, “SYNTHESIS AND USES OF PYROGLUTAMIC ACID DERIVATIVES” (Prodimed, S.A., priority 2006, published 2007)
